For 14 compounds, IC50, Papp and efflux ratio results are on record in US11802127B2, “3,4-dihydro-2,7-naphthyridine-1,6(2H,7H)-diones as MEK inhibitors” (Pfizer Inc., priority 2021, dated 2023).

Data set [1] relates to ERK1/2(Thr202/Tyr204) phosphorylation (MEK-dependent) in A375 cells. The data set can be described thus: Cellular Phospho-p44/42 MAPK (Erk1/2) (Thr202/Tyr204) Assay. To be noted: Homo sapiens, A-375, 1-hour incubation, pERK1/2 (Thr202/Tyr204) In-Cell Western normalized to GAPDH. The format is cell-based. Here is the method:
Inhibition of ERK1/2(Thr202/Tyr204) phosphorylation was determined by the following cellular assay, which comprises incubating cells with a compound for 1 hour and quantifying pERK signal by In-Cell Western on fixed cells and normalizing to GAPDH signal. A375 cells were obtained from the ATCC and grown in DMEM supplemented with 10% fetal bovine serum, penicillin/streptomycin, Glutamax®, non-essential amino acids, and sodium pyruvate. Cells were plated in 96-well plates at 30,000 cells/well and allowed to attach overnight at 37° C./5% CO2. Cells were treated with compounds prepared as a 10-point, 1:3 dilution series (range: 20 μM-0.05 nM; maximum concentration varied from 20 μM-1 μM), with a final DMSO concentration of 0.5%. Control wells contained either 0.5% DMSO alone (no inhibition control) or 1 μM of a potent control compound (complete inhibition control). After a 1-hour incubation, cells were fixed in 3.7% formaldehyde in dPBS (Dulbecco's phosphate-buffered saline) at room temperature for 20 minutes. Cells were then washed with dPBS and permeabilized in 100% MeOH at room temperature for 10 minutes. Following permeabilization, cells were washed in dPBS and incubated in LI-COR Blocking Buffer (LI-COR Biosciences, Cat #927-40000) for 1 hour or longer. Plates were then incubated with an antibody specific for the MEK-dependent ERK1/2 phosphorylation sites, threonine 202 and tyrosine 204 (Cell Signaling Technologies; Cat #9101), downstream of MEK in the MAP kinase signal transduction pathway, as well as GAPDH (Millipore; Cat #MAB374). pErk1/2 (Thr202/Tyr204) antibody was diluted in LI-COR blocking buffer containing 0.05% Tween-20 at 1:250; GAPDH was diluted at 1:2,500. The plates were incubated overnight at 4° C. After washing with PBS/0.05% Tween-20, the cells were incubated with fluorescently-labeled secondary antibodies (Anti-rabbit-Alexa Flour680, Invitrogen Cat #A21109; Anti-mouse-IRDye800CW, LI-COR Biosciences Cat #926-32210, both at 1:1000 dilution) for 1 hour. Cells were then washed, as above, and analyzed for fluorescence at both 680 and 800 nm wavelengths using the Odyssey CLx Infrared Imaging System (LI-COR Biosciences). Phosphorylated Erk1/2 (Thr202/Tyr204) signal was normalized to GAPDH signal for each well.

The nature of data set [2]: MDR1 LLC-PK1 and BCRP MDCKII Permeability Assay: permeability coefficient (Papp). The format is in vitro ADME. To be noted: MDCK, test article 1 μM, 37° C. How it is done: (§1) Both LLC-PK1 and MDR1 transfected LLC-PK1 cells were cultured and plated according to manufacturer's recommendations with the exception that the passage media contained only 2% fetal bovine serum to extend passage time out to seven days.
(§2) BCRP transfected MDCKII canine P-gp knockout cell line was cultured and plated according to manufacturer's recommendations.
(§3) Both positive and negative controls were used to assess functionality of P-gp or BCRP efflux in the assays. Stock solutions for assay controls and the test article were prepared in DMSO for final test concentrations of 10 and 1 μM, respectively. Final organic concentration in the assay was 1%. All dosing solutions contained 10 μM lucifer yellow to monitor LLC-PK1 or MDCKII cell monolayer integrity.
(§4) For the apical to basolateral determination (A to B), 75 μL of the test article in transport buffer were added to the apical side of the individual transwells and 250 μL of basolateral media, without compound or lucifer yellow, were added to each well. For the basolateral to apical determination (B to A), 250 μL of test article in transport buffer were added to each well and 75 μL transport buffer, without compound or lucifer yellow, were added to each transwell. All tests were performed in triplicate, and each compound was tested for both apical to basolateral and basolateral to apical transport. The plates were incubated for 2 hours on a Lab-Line Instruments Titer Orbital Shaker (VWR, West Chester, PA) at 50 rpm and 37° C. with 5% CO2. All culture plates were removed from the incubator and 50 μL of media were removed from the apical and basolateral portion of each well and added to 150 μL of 1 μM labetalol in 2:1 acetonitrile (acetonitrile): H2O, v/v.
(§5) The plates were read using a Molecular Devices (Sunnyvale, CA) Gemini Fluorometer to evaluate the lucifer yellow concentrations at excitation/emission wavelengths of 425/535 nm. These values were accepted when found to be below 2% for apical to basolateral and 5% basolateral to apical flux across the MDR1-transfected LLC-PK1 or BCRP-transfected MDCKII cell monolayers. The plates were sealed and the contents of each well analyzed by LC-MS/MS. The compound concentrations were determined from the ratio of the peak areas of the compound to the internal standard (labetalol) in comparison to the dosing solution.
(§6) The LC-MS/MS system was comprised of an HTS-PAL autosampler (Leap Technologies, Carrboro, NC), an HP1200 HPLC (Agilent, Palo Alto, CA), and a MDS Sciex 4000 Q Trap system (Applied Biosystems, Foster City, CA). […] The total run time, including re-equilibration, for a single injection was 1.2 minutes. Mass spectrometric detection of the analytes was accomplished using the ion spray positive mode. Analyte responses were measured by multiple reaction monitoring (MRM) of transitions unique to each compound (the protonated precursor ion and selected product ions for each test article and m/z 329 to m/z 162 for labetalol, the internal standard).

The target of the next data set is T1, BCRP (hBCRP) (Homo sapiens, UniProt Q9UNQ0).
T1 construct: expressed in transfected cells; host or cells: MDCKII (canine kidney) cells, canine P-gp knockout, transfected with BCRP
T1 sequence (Q9UNQ0 1-655): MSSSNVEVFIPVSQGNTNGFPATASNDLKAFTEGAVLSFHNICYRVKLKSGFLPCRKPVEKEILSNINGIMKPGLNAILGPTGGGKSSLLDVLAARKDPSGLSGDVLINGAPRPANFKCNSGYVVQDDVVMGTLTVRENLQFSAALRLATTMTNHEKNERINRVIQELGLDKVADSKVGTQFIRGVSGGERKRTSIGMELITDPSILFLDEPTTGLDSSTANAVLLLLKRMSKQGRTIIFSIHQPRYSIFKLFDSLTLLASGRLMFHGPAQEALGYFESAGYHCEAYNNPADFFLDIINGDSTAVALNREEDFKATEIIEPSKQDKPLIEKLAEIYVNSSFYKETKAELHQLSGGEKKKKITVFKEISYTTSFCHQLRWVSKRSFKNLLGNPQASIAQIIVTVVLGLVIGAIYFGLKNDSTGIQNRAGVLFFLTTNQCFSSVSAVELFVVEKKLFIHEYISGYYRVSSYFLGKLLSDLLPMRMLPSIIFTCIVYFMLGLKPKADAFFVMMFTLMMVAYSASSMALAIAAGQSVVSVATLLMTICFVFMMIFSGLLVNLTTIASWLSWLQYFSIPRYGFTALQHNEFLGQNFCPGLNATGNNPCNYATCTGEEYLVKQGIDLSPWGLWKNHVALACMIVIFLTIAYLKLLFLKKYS
The data set can be described thus: Efflux ratio in BCRP transfected MDCKII canine P-gp knockout cells. It counts as in vitro ADME. The conditions noted are these: Papp(B−A)/Papp(A−B), read-out: Efflux ratio MDCKII-hBCRP knock-in,canine pg-P KO. How it is done:
as §2, §3, §4, §5, §6
(§7) An efflux ratio is calculated from the mean apical to basolateral (A−B) Papp data and basolateral to apical (B−A) Papp data: Efflux ratio=Papp(B−A)/Papp(A−B)

The next data set addresses T2, P-gp (MDR1) (Homo sapiens, UniProt P08183).
T2 construct: expressed in transfected cells; host or cells: LLC-PK1 (porcine kidney) cells transfected with MDR1
The data set is described as follows: Efflux ratio in MDR1 transfected LLC-PK1 cells. The format is in vitro ADME. The conditions noted are these: pig, Papp(B−A)/Papp(A−B). How it is done:
as §1, §3, §4, §5, §6, §7

T2 sequence (P08183 whole entry): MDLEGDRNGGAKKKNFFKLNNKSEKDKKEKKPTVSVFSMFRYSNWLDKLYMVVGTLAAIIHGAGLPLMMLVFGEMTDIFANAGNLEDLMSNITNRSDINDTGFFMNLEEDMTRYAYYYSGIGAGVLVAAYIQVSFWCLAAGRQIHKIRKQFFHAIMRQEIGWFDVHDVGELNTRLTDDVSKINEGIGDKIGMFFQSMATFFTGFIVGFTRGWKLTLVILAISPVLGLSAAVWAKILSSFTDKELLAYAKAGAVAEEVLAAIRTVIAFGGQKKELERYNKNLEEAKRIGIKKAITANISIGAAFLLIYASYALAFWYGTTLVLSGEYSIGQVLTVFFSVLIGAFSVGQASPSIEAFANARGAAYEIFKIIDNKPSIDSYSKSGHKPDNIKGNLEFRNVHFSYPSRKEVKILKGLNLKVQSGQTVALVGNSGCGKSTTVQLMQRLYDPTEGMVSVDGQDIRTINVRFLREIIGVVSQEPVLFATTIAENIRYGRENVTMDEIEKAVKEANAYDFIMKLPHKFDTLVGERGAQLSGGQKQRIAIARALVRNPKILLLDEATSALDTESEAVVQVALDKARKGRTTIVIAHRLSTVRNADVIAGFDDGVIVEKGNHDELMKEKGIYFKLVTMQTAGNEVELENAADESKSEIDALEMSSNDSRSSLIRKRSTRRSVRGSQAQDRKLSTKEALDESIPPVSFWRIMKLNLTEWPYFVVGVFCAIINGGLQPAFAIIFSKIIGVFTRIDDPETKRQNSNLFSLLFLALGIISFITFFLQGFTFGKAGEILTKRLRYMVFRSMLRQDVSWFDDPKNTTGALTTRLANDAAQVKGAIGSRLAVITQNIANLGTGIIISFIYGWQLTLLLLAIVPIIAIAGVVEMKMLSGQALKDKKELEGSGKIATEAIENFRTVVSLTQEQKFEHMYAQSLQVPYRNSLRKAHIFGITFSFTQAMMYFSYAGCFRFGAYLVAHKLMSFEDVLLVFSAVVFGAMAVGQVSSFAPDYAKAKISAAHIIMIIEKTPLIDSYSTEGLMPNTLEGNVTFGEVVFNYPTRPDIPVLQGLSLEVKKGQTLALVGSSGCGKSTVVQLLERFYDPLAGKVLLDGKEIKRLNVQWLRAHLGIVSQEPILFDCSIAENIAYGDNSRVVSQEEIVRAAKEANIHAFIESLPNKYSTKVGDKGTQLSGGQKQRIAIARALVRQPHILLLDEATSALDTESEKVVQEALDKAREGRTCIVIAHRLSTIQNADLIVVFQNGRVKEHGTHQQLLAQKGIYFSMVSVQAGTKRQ

For orientation: IC50 means the concentration needed to halve the response being measured. Read a high IC50 as weaker potency. As usually defined, the Papp is a coefficient for how fast a substance crosses the barrier. The low end stands for poor permeation, the high end for ready permeation. On to `CC1CNC(=O)c2c1cc(=O)n(C)c2Nc1ccc(Br)cc1F` (stereo not shown) [Example 66, 8-((4-bromo-2-fluorophenyl)amino)-4,7-dimethyl-3,4-dihydro-2,7-naphthyrdine-1,6(2H,7H)-dione], for which the IC50 in data set [1] came to 27 nM. Also, the Papp at 2 h, 1 μM in data set [2] is 24.9 ×10⁻⁶ cm/s. The efflux ratio at 2 h, 1 μM at BCRP (hBCRP) turned out to be 1.

For `CSc1ccc(Nc2c3c(cc(=O)n2C)C(c2ccccc2)CNC3=O)c(F)c1` (stereo not shown) [Example 65, 8-((2-fluoro-4-(methylthio)phenyl)amino)-7-methyl-4-phenyl-3,4-dihydro-2,7-naphthyridine-1,6(2H,7H)-dione], the IC50 in data set [1] was 2 nM. This compound also registered a Papp at 2 h, 1 μM in data set [2] of 12.5 ×10⁻⁶ cm/s. Moreover, on BCRP (hBCRP), the efflux ratio at 2 h, 1 μM was determined as 0.8.

In the case of `Cn1c(Nc2ccc(Br)cc2F)c2c(cc1=O)C(c1ccccc1)CNC2=O` (stereo not shown) [Example 64, 8-((4-bromo-2-fluorophenyl)amino)-7-methyl-4-phenyl-3,4-dihydro-2,7-naphthyridine-1,6(2H,7H)-dione], the IC50 in data set [1] amounted to 2 nM. Moreover, at BCRP (hBCRP), the efflux ratio at 2 h, 1 μM amounted to 1.5.

Compound `CSc1ccc(Nc2c3c(cc(=O)n2C)C(C)CNC3=O)c(F)c1` (stereo not shown) [Example 67, 8-((2-fluoro-4-(methylthio)phenyl)amino)-4,7-dimethyl-3,4-dihydro-2,7-naphthyrdine-1,6(2H,7H)-dione] displayed an IC50 in data set [1] of 8 nM. Moreover, the Papp at 2 h, 1 μM in data set [2] was determined as 28.3 ×10⁻⁶ cm/s. Further, the efflux ratio at 2 h, 1 μM on BCRP (hBCRP) amounted to 1.1.

Consider `CC1CN(OCCO)C(=O)c2c1cc(=O)n(C)c2Nc1ccc(Br)cc1F` (stereo not shown) [Example 68, 8-((4-bromo-2-fluorophenyl)amino)-2-(2-hydroxyethoxy)-4,7-dimethyl-3,4-dihydro-2,7-naphthyridine-1,6(2H,7H)-dione], for which, in data set [1], half-maximal inhibition (IC50) required 3 nM. Besides, in data set [2], the Papp at 2 h, 1 μM came to 18.7 ×10⁻⁶ cm/s. In addition, the efflux ratio at 2 h, 1 μM at BCRP (hBCRP) turned out to be 2.5.

For the compound `Cc1c2c(c(Nc3ccc(OC(F)F)cc3F)n(C)c1=O)C(=O)N(OCCO)CC2` [Example 62, 8-((4-(difluoromethoxy)-2-fluorophenyl)amino)-2-(2-hydroxyethoxy)-5,7-dimethyl-3,4-dihydro-2,7-naphthyridine-1,6(2H,7H)-dione], the IC50 in data set [1] came to 17 nM. The Papp at 2 h, 1 μM in data set [2] is 26.1 ×10⁻⁶ cm/s. Further, the efflux ratio at 2 h, 1 μM at P-gp (MDR1) was determined as 5.

With `Cc1c2c(c(Nc3ccc(Br)cc3F)n(C)c1=O)C(=O)NCC2` [Example 47, 8-((4-bromo-2-fluorophenyl)amino)-5,7-dimethyl-3,4-dihydro-2,7-naphthyridine-1,6(2H,7H)-dione], the half-maximal inhibitory concentration (IC50) in data set [1] came out at 97 nM. The compound also had a Papp at 2 h, 1 μM in data set [2] of 31.5 ×10⁻⁶ cm/s. In addition, the efflux ratio at 2 h, 1 μM on P-gp (MDR1) is 1.3.

Turning to `Cn1c(Nc2ccccc2F)c2c(c(I)c1=O)CCN(OCCO)C2=O` [Example 41, 8-((2-fluorophenyl)amino)-2-(2-hydroxyethoxy)-5-iodo-7-methyl-3,4-dihydro-2,7-naphthyridine-1,6(2H,7H)-dione], the IC50 in data set [1] was 74 nM.

The compound `CCCc1ccc(Nc2c3c(cc(=O)n2C)CCNC3=O)c(F)c1` [Example 54, 8-((2-fluoro-4-propylphenyl)amino)-7-methyl-3,4-dihydro-2,7-naphthyridine-1,6(2H,7H)-dione] returned an IC50 in data set [1] of 167 nM.

For the compound `COc1ccc(Nc2c3c(cc(=O)n2C)CCN(OCCO)C3=O)c(F)c1` [Example 16, 8-((2-fluoro-4-methoxyphenyl)amino)-2-(2-hydroxyethoxy)-7-methyl-3,4-dihydro-2,7-naphthyridine-1,6(2H,7H)-dione], in data set [1], the IC50 came out at 274 nM.

The compound `Cn1c(Nc2ccc(I)cc2F)c2c(cc1=O)CCN(OC(C)(C)C)C2=O` [Example 30, 2-(tert-butoxy)-8-((2-fluoro-4-iodophenyl)amino)-7-methyl-3,4-dihydro-2,7-naphthyridine-1,6(2H,7H)-dione] had an IC50 in data set [1] of 421 nM.

Turning to `CSc1ccc(Nc2c3c(c(C)c(=O)n2C)CCN(OCCO)C3=O)c(F)c1` [Example 61, 8-((2-fluoro-4-(methylthio)phenyl)amino)-2-(2-hydroxyethoxy)-5,7-dimethyl-3,4-dihydro-2,7-naphthyridine-1,6(2H,7H)-dione], in data set [1], the IC50 came to 11 nM. Besides, the Papp at 2 h, 1 μM in data set [2] amounted to 26.9 ×10⁻⁶ cm/s. Further, on P-gp (MDR1), the efflux ratio at 2 h, 1 μM was determined as 3.

In the case of `CSc1ccc(Nc2c3c(cc(=O)n2C)C(C)CN(OCCO)C3=O)c(F)c1` (stereo not shown) [Example 69, 8-((2-fluoro-4-(methylthio)phenyl)amino)-2-(2-hydroxyethoxy)-4,7-dimethyl-3,4-dihydro-2,7-naphthyridine-1,6(2H,7H)-dione], 2 nM corresponded to half-maximal inhibition in data set [1] (IC50). In data set [2], this compound gave a Papp at 2 h, 1 μM of 19.6 ×10⁻⁶ cm/s. The efflux ratio at 2 h, 1 μM on BCRP (hBCRP) was 2.3.

Consider `Cn1c(Nc2ccc(Br)cc2Cl)c2c(cc1=O)CCNC2=O` [Example 59, 8-((4-bromo-2-chlorophenyl)amino)-7-methyl-3,4-dihydro-2,7-naphthyridine-1,6(2H,7H)-dione], for which the IC50 in data set [1] amounted to 72 nM.
